# Source: ChEMBL document CHEMBL5620354, “Development of isoselenazolium chlorides as selective pyruvate kinase isoform M2 inhibitors” (Eur J Med Chem, 2023)
# Active and inactive are the calls of the source. The calls are words filed in the database; no cut-off is given here.
# Columns and labels:
# [1] = Cytotoxicity against rat H9c2 cells assessed as inhibition of cell growth incubated for 48 hrs by MTT assay; type: toxicity, cell-based
# [2] = system: Jurkat; test: Cytotoxicity against human Jurkat cells assessed as inhibition of cell growth incubated for 48 hrs by MTT assay; type: functional, cell-based
# [3] = system: HCC1937; test: Cytotoxicity against human HCC1937 cells assessed as inhibition of cell growth incubated for 48 hrs by MTT assay; type: functional, cell-based; conditions: HCC1937, 48 h
# [4] = system: MDA-MB-231; test: Cytotoxicity against human MDA-MB-231 cells assessed as inhibition of cell growth incubated for 48 hrs by MTT assay; type: functional, cell-based; conditions: MDA-MB-231, 48 h
# [5] = system: 4T1; test: Cytotoxicity against mouse 4T1 cells assessed as inhibition of cell growth incubated for 48 hrs by MTT assay; type: functional, cell-based; conditions: 4T1, 48 h, read-out: IC50
# [6] = system: MCF7; test: Induction of mitochondrial respiration in human MCF7 cells assessed as increase in oxygen consumption rate at 1 uM in presence of LEAK state by high-resolution fluorespirometry analysis; type: functional, cell-based
# [7] = system: 4T1; test: Induction of mitochondrial respiration in mouse 4T1 cells assessed as increase in oxygen consumption rate at 1 uM in presence of LEAK state by high-resolution fluorespirometry analysis; type: functional, cell-based
# [8] = system: HCC1937; test: Induction of mitochondrial respiration in human HCC1937 cells assessed as increase in oxygen consumption rate at 1 uM in presence of LEAK state by high-resolution fluorespirometry analysis; type: functional, cell-based
# [9] = system: Jurkat; test: Induction of mitochondrial respiration in human Jurkat cells assessed as increase in oxygen consumption rate at 1 uM in presence of LEAK state by high-resolution fluorespirometry analysis; type: functional, cell-based
# [10] = system: MCF7; test: Induction of mitochondrial respiration in human MCF7 cells assessed as increase in oxygen consumption rate at 1 uM in presence of OXPHOS state by high-resolution fluorespirometry analysis; type: functional, cell-based
# [11] = system: 4T1; test: Induction of mitochondrial respiration in mouse 4T1 cells assessed as increase in oxygen consumption rate at 1 uM in presence of OXPHOS state by high-resolution fluorespirometry analysis; type: functional, cell-based
# [12] = system: HCC1937; test: Induction of mitochondrial respiration in human HCC1937 cells assessed as increase in oxygen consumption rate at 1 uM in presence of OXPHOS state by high-resolution fluorespirometry analysis; type: functional, cell-based
# [13] = system: Jurkat; test: Induction of mitochondrial respiration in human Jurkat cells assessed as increase in oxygen consumption rate at 1 uM in presence of OXPHOS state by high-resolution fluorespirometry analysis; type: functional, cell-based
# [14] = system: MCF7; test: Induction of ROS production in human MCF7 cells at 1 uM in presence of pyruvate and malate by high-resolution fluorespirometry analysis; type: functional, cell-based
# [15] = system: 4T1; test: Induction of ROS production in mouse 4T1 cells at 1 uM in presence of pyruvate and malate by high-resolution fluorespirometry analysis; type: functional, cell-based
# [16] = system: HCC1937; test: Induction of ROS production in human HCC1937 cells at 1 uM in presence of pyruvate and malate by high-resolution fluorespirometry analysis; type: functional, cell-based
# [17] = system: Jurkat; test: Induction of ROS production in human Jurkat cells at 1 uM in presence of pyruvate and malate by high-resolution fluorespirometry analysis; type: functional, cell-based
# [18] = system: 4T1; test: Induction of ROS production in mouse 4T1 cells assessed as decrease in NAD+/NADH ratio at 1 uM incubated for 20 mins by fluorescence cell counter analysis; type: functional, cell-based
# [19] = system: 4T1; test: Induction of ROS production in mouse 4T1 cells assessed as decrease in NAD+ level at 1 uM incubated for 20 mins by fluorescence cell counter analysis; type: functional; set-up: scale not given: the % may be the effect or the level left
# [20] = system: 4T1; test: Induction of ROS production in mouse 4T1 cells assessed as decrease in NADH level at 1 uM incubated for 20 mins by fluorescence cell counter analysis; type: functional; set-up: scale not given: the % may be the effect or the level left
# [21] = system: H9c2; test: Induction of ROS production in rat H9c2 cells assessed as decrease in NAD+ level at 1 uM incubated for 20 mins by fluorescence cell counter analysis; type: functional, cell-based
# [22] = system: H9c2; test: Induction of ROS production in rat H9c2 cells assessed as decrease in NADH level at 1 uM incubated for 20 mins by fluorescence cell counter analysis; type: functional, cell-based
# [23] = system: H9c2; test: Induction of ROS production in rat H9c2 cells assessed as decrease in NAD+/NADH ratio at 1 uM incubated for 20 mins by fluorescence cell counter analysis; type: functional, cell-based
# [24] = molecular target: T1, Pyruvate kinase PKM (Homo sapiens, UniProt P14618); test: Inhibition of PKM2 (unknown origin) by ITC analysis
# Target sequence in this assay (P14618 whole entry): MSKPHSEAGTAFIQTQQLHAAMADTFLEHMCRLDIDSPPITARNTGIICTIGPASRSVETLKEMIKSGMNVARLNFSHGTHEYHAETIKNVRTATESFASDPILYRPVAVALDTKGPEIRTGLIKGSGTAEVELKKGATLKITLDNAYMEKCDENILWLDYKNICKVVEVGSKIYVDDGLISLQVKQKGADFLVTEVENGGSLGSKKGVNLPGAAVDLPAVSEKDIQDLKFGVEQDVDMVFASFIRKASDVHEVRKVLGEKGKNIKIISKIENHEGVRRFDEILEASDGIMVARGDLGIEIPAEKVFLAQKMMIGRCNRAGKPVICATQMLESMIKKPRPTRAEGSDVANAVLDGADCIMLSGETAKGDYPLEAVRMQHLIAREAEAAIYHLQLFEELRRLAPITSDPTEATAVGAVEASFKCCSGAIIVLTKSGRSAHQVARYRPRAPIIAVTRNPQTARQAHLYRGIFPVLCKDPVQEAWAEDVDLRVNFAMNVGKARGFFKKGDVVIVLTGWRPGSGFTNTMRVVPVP
# [25] = molecular target: T1, Pyruvate kinase PKM; test: Inhibition of N-terminal his8-tagged PKM2 (unknown origin)
# Target sequence in this assay (P14618 whole entry): as above
# [26] = molecular target: T1, Pyruvate kinase PKM; test: Inhibition of N-terminal his8-tagged PKM2 (unknown origin) in presence of FBP by Michaelis-menten analysis
# Target sequence in this assay (P14618 whole entry): as above
# [27] = molecular target: T1, Pyruvate kinase PKM; test: Inhibition of PKM1 (unknown origin); set-up: concentration or dose not given beside the values; conditions: concentration not given here
# Target sequence in this assay (P14618 2-531 limits assumed): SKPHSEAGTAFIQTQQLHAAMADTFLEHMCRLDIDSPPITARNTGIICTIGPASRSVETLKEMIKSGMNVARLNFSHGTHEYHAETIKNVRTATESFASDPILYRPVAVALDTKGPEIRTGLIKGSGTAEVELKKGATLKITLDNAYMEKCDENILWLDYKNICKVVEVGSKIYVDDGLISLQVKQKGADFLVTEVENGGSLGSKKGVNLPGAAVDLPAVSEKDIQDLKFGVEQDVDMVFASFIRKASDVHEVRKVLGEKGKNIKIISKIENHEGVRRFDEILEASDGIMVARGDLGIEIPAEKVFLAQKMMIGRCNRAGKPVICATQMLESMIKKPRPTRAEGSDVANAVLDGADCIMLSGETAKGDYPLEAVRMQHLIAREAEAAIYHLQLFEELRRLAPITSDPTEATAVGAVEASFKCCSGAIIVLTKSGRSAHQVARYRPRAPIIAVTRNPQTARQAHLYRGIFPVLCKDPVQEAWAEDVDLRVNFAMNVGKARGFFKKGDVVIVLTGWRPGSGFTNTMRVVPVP
# [28] = species on record: Oryctolagus cuniculus; test: Inhibition of rabbit LDH at 1 uM relative to control
# [29] = Binding affinity to Sprague-Dawley rat liver Cardiolipin incubated for 10 mins by microplate reader analysis; type: tissue-based
# [30] = molecular target: T1, Pyruvate kinase PKM; test: Inhibition of PKM2 (unknown origin) assessed as increase in tetramer ratio by analytical size-exclusion chromatography; conditions: dose 5.0 µM
# Target sequence in this assay (P14618 2-531 limits assumed): as above
# [31] = system: 4T1; test: Downregulation of PKM2 mRNA expression in mouse 4T1 cells at 0.25 to 0.5 uM incubated for 24 hrs by qPCR analysis; type: functional, cell-based; conditions: dose 0.25-0.5 µM
# [32] = Downregulation of PKM2 mRNA expression in human HCC1937 cells assessed as fold change at 0.25 uM incubated for 24 hrs by qPCR analysis; type: functional
# [33] = Downregulation of PKM2 mRNA expression in human HCC1937 cells assessed as fold change at 0.5 uM incubated for 24 hrs by qPCR analysis; type: functional
# [34] = system: HCC1937; test: Downregulation of PKM1 mRNA expression in human HCC1937 cells at 0.25 to 5 uM incubated for 24 hrs by qPCR analysis; type: functional, cell-based; conditions: dose 0.25-5 µM
# [35] = system: MCF7; test: cells; conditions: Homo sapiens, MCF7, 48 h
# Description: Cytotoxicity against human MCF7 cells assessed as inhibition of cell growth incubated for 48 hrs by MTT assay
# [36] = system: A549; test: cells; conditions: Homo sapiens, A549, 48 h
# Description: Cytotoxicity against human A549 cells assessed as inhibition of cell growth incubated for 48 hrs by MTT assay
# [37] = molecular target: Pyruvate kinase PKLR (Homo sapiens) (UniProt P30613); test: Inhibition of PKR (unknown origin) at 1 uM relative to control
# Chain of Pyruvate kinase PKLR (Homo sapiens) (P30613 whole entry, looked up): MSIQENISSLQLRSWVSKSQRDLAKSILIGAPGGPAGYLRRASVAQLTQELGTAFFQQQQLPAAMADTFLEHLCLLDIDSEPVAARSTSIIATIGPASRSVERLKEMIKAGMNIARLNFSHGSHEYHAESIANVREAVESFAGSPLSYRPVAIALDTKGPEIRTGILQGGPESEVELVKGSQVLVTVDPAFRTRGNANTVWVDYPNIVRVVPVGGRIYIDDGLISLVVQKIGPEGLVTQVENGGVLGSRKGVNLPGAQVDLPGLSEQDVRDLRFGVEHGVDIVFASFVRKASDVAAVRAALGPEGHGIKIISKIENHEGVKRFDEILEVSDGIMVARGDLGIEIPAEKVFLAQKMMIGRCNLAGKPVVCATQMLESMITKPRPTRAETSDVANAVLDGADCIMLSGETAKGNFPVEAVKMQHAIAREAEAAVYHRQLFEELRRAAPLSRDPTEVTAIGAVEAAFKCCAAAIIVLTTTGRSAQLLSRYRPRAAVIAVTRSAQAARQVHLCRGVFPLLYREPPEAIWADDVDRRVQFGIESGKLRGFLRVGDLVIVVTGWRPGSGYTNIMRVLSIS
structure (smiles),measurement,setting,value
COC(=O)c1cc[n+]2[se]c(C3(O)CCCCC3)c(Br)c2c1.[Cl-],IC50 at 48 h,[1],2.46 µM
same,IC50,[2],0.44 µM
same,IC50,[3],0.33 µM
same,IC50,[4],0.51 µM
same,IC50,[5],0.32 µM
same,Activity,[6],Active
same,Activity,[7],Active
same,Activity,[8],Active
same,Activity,[9],Active
same,Activity,[10],Active
same,Activity,[11],Active
same,Activity,[12],Active
same,Activity,[13],Active
same,Activity,[14],Active
same,Activity,[15],Active
same,Activity,[16],Active
same,Activity,[17],Active
same,Activity,[18],inactive
same,Activity,[19],42.8%
same,Activity,[20],57.4%
same,Activity,[21],inactive
same,Activity,[22],inactive
same,Activity,[23],inactive
same,IC50,[24],0.25 µM
same,IC50,[25],0.35 µM
same,IC50,[26],0.477 µM
same,inhibition,[27],13%
same,inhibition,[27]; tested as the 2H-labelled form,10%
same,inhibition,[28],10%
same,inhibition,[28]; tested as the 2H-labelled form,13%
same,EC50,[29],3490 µM
same,inhibition,[30],Dose-Dependent Effect
same,Activity,[31],Active
same,fold change (FC),[32],4
same,fold change (FC),[33],20
same,Activity,[34],inactive
same,IC50,[35],1.16 µM
same,IC50,[36],1.3 µM
same,inhibition,[37],21%
same,inhibition,[37]; tested as the 2H-labelled form,16%
